Assay: xn = mol fraction of the nth substance listed
Conditions: 101 kPa, Liquid, Vibrating tube method

Cc1cc(C)cc(C)c1 [1,3,5-trimethylbenzene] + CC(=O)c1ccccc1
x1 = 1
Conditions	mass density [kg/m3]
298.15 K	861.13
328.15 K	836.63

Cc1cccc(C)c1 [1,3-dimethylbenzene] + CC(=O)c1ccccc1
x1 = 1
Conditions	mass density [kg/m3]
298.15 K	859.88
328.15 K	834.12

CC(=O)c1ccccc1 [acetophenone] + Cc1cc(C)cc(C)c1
mass density [kg/m3]
Conditions	298.15 K	328.15 K
x2 = 0	1023.13	996.99
x2 = 0.09015	1006.63	980.65
x2 = 0.185	989.75	963.9
x2 = 0.2674	975.43	949.71
x2 = 0.358	960.07	934.46
x2 = 0.4569	943.72	918.28
x2 = 0.5358	930.98	905.65
x2 = 0.6409	914.41	889.25
x2 = 0.7322	900.4	875.38
x2 = 0.836	884.84	860
x2 = 0.8961	876.03	851.31

CC(=O)c1ccccc1 [acetophenone] + Cc1cccc(C)c1
mass density [kg/m3]
Conditions	298.15 K	328.15 K
x2 = 0	1023.12	996.98
x2 = 0.09263	1007.97	981.88
x2 = 0.1807	993.62	967.52
x2 = 0.2662	979.65	953.61
x2 = 0.3566	964.94	938.89
x2 = 0.4525	949.31	923.26
x2 = 0.538	935.34	909.32
x2 = 0.6252	921.13	895.13
x2 = 0.7339	903.38	877.43
x2 = 0.8479	884.76	858.85
x2 = 0.8943	877.15	851.29

CC(=O)c1ccccc1 [acetophenone] + Cc1ccccc1
mass density [kg/m3]
Conditions	298.15 K	328.15 K
x2 = 0	1023.12	997.01
x2 = 0.1016	1008.8	982.57
x2 = 0.1982	994.83	968.48
x2 = 0.257	986.17	959.73
x2 = 0.3576	971	944.41
x2 = 0.453	956.2	929.46
x2 = 0.5369	942.81	915.9
x2 = 0.6366	926.48	899.39
x2 = 0.7154	913.19	885.89
x2 = 0.8198	895.09	867.55
x2 = 0.9019	880.36	852.62

CC(=O)c1ccccc1 [acetophenone] + c1ccccc1
mass density [kg/m3]
Conditions	298.15 K	328.15 K
x2 = 0	1023.11	997
x2 = 0.1057	1011.02	984.62
x2 = 0.186	1001.34	974.7
x2 = 0.2855	988.94	961.91
x2 = 0.3792	976.58	949.15
x2 = 0.4626	964.98	937.16
x2 = 0.5484	952.49	924.19
x2 = 0.6248	940.71	911.99
x2 = 0.7289	923.84	894.3
x2 = 0.8003	911.56	881.44
x2 = 0.8953	894.23	863.18

c1ccccc1 [benzene] + CC(=O)c1ccccc1
x1 = 1
Conditions	mass density [kg/m3]
298.15 K	873.64
328.15 K	841.51

Cc1ccccc1 [toluene] + CC(=O)c1ccccc1
x1 = 1
Conditions	mass density [kg/m3]
298.15 K	862.27
328.15 K	834.26

— the NIST ThermoML archive (doi:10.1016/j.jct.2004.11.023)
